The values that follow come from patent publication US20170128426A1, “NOVEL DOSAGE AND FORMULATION” (Almirall, S.A., priority 2012, published 2017).

The data set in a line: Solubility of aclidinium bromide in solvents. The data set is classed as physicochemical. An excerpt:
Aclidinium bromide is a white powder with a molecular formula of C26H30NO4S2Br and a molecular mass of 564.56. […] This compound is known to be a long-acting anticholinergic useful in the treatment of respiratory diseases.

With `O=C(O[C@H]1C[N+]2(CCCOc3ccccc3)CCC1CC2)C(O)(c1cccs1)c1cccs1.[Br-]` [Aclidinium bromide, 3(R)-(2-hydroxy-2,2-dithien-2-ylacetoxy)-1-(3-phenoxypropyl)-1-azoniabicyclo[2.2.2]octane bromide], the solubility in ethanol result (ethanol) was “very slightly soluble”. For the same compound, the solubility in methanol entry (methanol) is “sparingly soluble”. For the same compound, where the note is “water”, the solubility in water entry is recorded as “very slightly soluble”.
